Data taken from article PMC5937083, “Physicochemical, Stress Degradation Evaluation and Pharmacokinetic Study of AZGH101; a New Synthesized COX2 Inhibitor after I.V. and Oral Administration in Male and Female Rats” (Iranian Journal of Pharmaceutical Research : IJPR, 2018).
Values after ≈ are worked out from the molar mass of the structure shown. Like-named read-outs stand apart in the source and are kept apart here.

Columns and labels:
[1] = Aqueous solubility (OECD Guideline No. 105); assay type: physicochemical; conditions: water; 3 replications
Protocol: (§1) Melting point was determined with an Electrothermal 9200 apparatus (UK). Aqueous solubility and octanol/water partition coefficient of the synthesized derivative was determined according to Organisation for Economic Co-operation and Development (OECD) Guideline for Testing of Chemicals, No.105, and No. 107 respectively ([11]-[13]).

[2] = Octanol/water partition coefficient, log P (OECD Guideline No. 107); assay type: physicochemical; conditions: n = 3, read-out: log P (logarithm of octanol/water partition coefficient)
Protocol: as §1

[3] = Forced degradation stability study (ICH guideline for new drug substance); assay type: physicochemical; conditions: for Forced tests results, Mean ±SD: fraction recovered intact, 3 replications
Protocol: The stability study was conducted according to forced degradation protocol ICH guideline for new drug substance ([14]-[16]). In brief, the stability of AZGH101 at acidic, basic, and neutral medium was evaluated. Moreover, the effect of oxidative condition (H2O2, 3 and 30%), thermal degradation at solid state, and photolysis on the stability of AZGH101 was examined.

[4] = Pharmacokinetic study after oral and intravenous administration to Wistar rats; assay type: in vivo; conditions: for k el: Wistar, read-out: β (elimination rate constant) (converted); for bioavailability: oral 20 mg/kg vs intravenous 10 mg/kg; for half-life: read-out: t1/2 β (converted)
Protocol: Male and female Wistar rats weighting 250 ± 10 g were used. They were kept at 25 ± 1 °C temperature and controlled humidity with 12 h light/dark cycle. The animals were fasted overnight before the experiment and had free access to water. The study protocol was approved by the local committee for animal experiments of Shahid Beheshti University of Medical Sciences (Tehran, Iran).
Male or female rats were chosen randomly (6 rats/group) and assigned to receive […] solution in normal saline for intravenous (IV) via the tail vein or oral administration via oral gavages. The administered doses in both sexes for intravenous (IV) and oral studies were 10 mg/kg and 20 mg/kg, respectively. Blood samples were collected from the tail vein immediately prior to administration (blank sample) and at 0.08, 0.25, 0.5, 1, 2, 4, 6, 8, 10, 21 and 22 h after administration into heparinized micro-tubes. Blood samples were centrifuged at 1000 g for 10 min and the separated plasmas were kept at –20 °C until analysis.
Pharmacokinetic analyses were performed using WinNonlin software (Pharsight Corporation, Mountain View, USA, Version 3.2) and two-compartmental model was chosen. The following pharmacokinetic parameters were estimated: terminal elimination half-life (t1/2), area under the plasma concentration versus time curve from zero to the infinity (AUC 0-∞), distribution and elimination rate constants (α, β), volume of distribution (Vd), and total body clearance (CL). The peak plasma concentration (Cmax) and the time to reach Cmax (Tmax) for oral dose were obtained directly from the observed individual plasma concentration-time data.

COX-2 = conditions: cited from earlier work
[5] = 'It was reported'; cited from earlier work
[6] = cited from earlier work
[7] = oral 20 mg/kg, female Wistar rats
[8] = oral 20 mg/kg, male Wistar rats
[9] = rat, plasma, intravenous 10 mg/kg, female Wistar rats
[10] = rat, plasma, intravenous 10 mg/kg, male Wistar rats
[11] = rat, plasma, oral 20 mg/kg, female Wistar rats
[12] = rat, plasma, oral 20 mg/kg, male Wistar rats

With CS(=O)(=O)c1ccc(-c2cc(C(=O)O)c3cc(C(=O)c4ccccc4)ccc3n2)cc1 [AZGH101, 6-benzoyl-2-(4-(methylsulfonyl)phenyl)quinoline-4-carboxylic acid] the solubility [1] was 1.4 ± 0.17 µg/mL (≈ 3.24 µM), the logP [2] was 3.82 ± 0.001 and the “Forced tests results, Mean ±SD” value ([3]; Hydrolysis (Acid)) was 0.95±0.02. The “Forced tests results, Mean ±SD” value ([3]; Hydrolysis (Base)) was 0.92±0.03, the “Forced tests results, Mean ±SD” value ([3]; Hydrolysis (Buffer pH=7)) was 0.94±0.02 and the “Forced tests results, Mean ±SD” value ([3]; Oxidative stress (H2O2-3%)) was 0.93±0.04. For the same compound, the “Forced tests results, Mean ±SD” value ([3]; Oxidative stress (H2O2-30%)) was 0.91±0.02, the “Forced tests results, Mean ±SD” value ([3]; Photodegradation (Acid)) was 0.94±0.02 and the “Forced tests results, Mean ±SD” value ([3]; Photodegradation (Base)) was 0.94±0.01. The “Forced tests results, Mean ±SD” value ([3]; Photodegradation (Buffer pH=7)) was 0.95±0.02, the “Forced tests results, Mean ±SD” value ([3]; Thermal Degradation (solid phase)) was 0.96±0.03 and the AZGH101 recovered intact ([3]; in all of the examined stress conditions) was “more than 90%”. The k el ([4]; female, rat, plasma, iv, 10 mg/kg, intravenous 10 mg/kg, female Wistar rats) was 9.72e-05 s⁻¹, the k el ([4]; female, rat, plasma, po, 20 mg/kg, oral 20 mg/kg, female Wistar rats) was 3.61e-05 s⁻¹ and the “α (distribution rate constant)” value ([4]; intravenous 10 mg/kg, female Wistar rats) was 3.70 ± 0.80 h⁻¹. The “β (elimination rate constant)” value ([4]; intravenous 10 mg/kg, female Wistar rats, 10 mg/kg) was 0.355 ± 0.006 h⁻¹, the “α (distribution rate constant)” value ([4]; intravenous 10 mg/kg, male Wistar rats) was 4.25 ± 0.99 h⁻¹ and the “β (elimination rate constant)” value ([4]; intravenous 10 mg/kg, male Wistar rats, 10 mg/kg) was 0.349 ± 0.008 h⁻¹. It also gave a k el ([4]; male, rat, plasma, iv, 10 mg/kg, intravenous 10 mg/kg, male Wistar rats) of 9.72e-05 s⁻¹, a k el ([4]; male, rat, plasma, po, 20 mg/kg, oral 20 mg/kg, male Wistar rats) of 3.89e-05 s⁻¹ and a Cl [4, 7] of 31.73 ± 3.31 mL/h. The Ka [4, 7] was 1.00 ± 0.10 h⁻¹, the Vd [4, 7] was 245.87 ± 44.86 mL and the “α (distribution rate constant)” value [4, 7] was 3.86 ± 2.99 h⁻¹. The Cl [4, 8] was 32.45 ± 1.65 mL/h, the Ka [4, 8] was 0.92 ± 0.18 h⁻¹ and the Vd [4, 8] was 233.55 ± 27.82 mL. For the same compound, the “α (distribution rate constant)” value [4, 8] was 3.34 ± 1.26 h⁻¹, the bioavailability ([4]; rat, plasma, Wistar rats, both sexes, read-out: oral absolute bioavailability) was roughly 27% and the AUC(0-inf) [4, 9] was 79400 ± 5810 ng·h/mL. The C0 [4, 9] was 86.8 ± 11.3 µg/mL, the clearance [4, 9] was 0.527 mL/min and the Vd ([4]; rat, plasma, intravenous 10 mg/kg, female Wistar rats, read-out: Vd) was 89.3 ± 7.68 mL. For the same compound, the half-life [4, 9] was 1.97 ± 0.06 h, the AUC(0-inf) [4, 10] was 77100 ± 3620 ng·h/mL and the C0 [4, 10] was 92.3 ± 11 µg/mL. It also gave a clearance [4, 10] of 0.541 mL/min, a Vd ([4]; rat, plasma, intravenous 10 mg/kg, male Wistar rats, read-out: Vd) of 94.1 ± 6.42 mL and a half-life [4, 10] of 2.01 ± 0.04 h. For the same compound, the bioavailability ([4]; rat, plasma, female Wistar rats, read-out: F (oral absolute bioavailability)) was 27.73 ± 0.01%, the bioavailability ([4]; rat, plasma, male Wistar rats, read-out: F (oral absolute bioavailability)) was 26.02 ± 0.03% and the AUC(0-inf) [4, 11] was 41300 ± 4200 ng·h/mL. It also gave a Cmax [4, 11] of 21.8 ± 1.33 µg/mL, a Tmax [4, 11] of 0.5 h and a half-life [4, 11] of 5.34 ± 0.48 h. For the same compound, the AUC(0-inf) [4, 12] was 42800 ± 2240 ng·h/mL, the Cmax [4, 12] was 20.4 ± 1.49 µg/mL and the Tmax [4, 12] was 0.5 h. For the same compound, the half-life [4, 12] was 4.99 ± 0.52 h, the IC50 (COX-2) was 77 nM and the “selectivity index (COX-1 IC50 / COX-2 IC50)” value (COX-2) was “less than 500”. For the same compound, the “tendency against inhibition of COX-2, times greater than ketoprofen” value (COX-2; relative to ketoprofen) was “about 10 times”.

In the case of Cc1ccc(-c2cc(C(F)(F)F)nn2-c2ccc(S(N)(=O)=O)cc2)cc1 [celecoxib], the solubility in water [5] is given as 3.3 µg/mL (≈ 8.65 µM).

In the case of CC(C(=O)O)c1cccc(C(=O)c2ccccc2)c1 (stereo not drawn) [ketoprofen], the “log P” value [6] is given as 3.1.
